Data taken from patent US9776992B2, “1-oxo-1,2-dihydroisoquinolin-7-yl-(5-substituted-thiophen-2-yl)-sulfonamide compounds, formulations containing those compounds, and their use as AICARFT inhibitors in the treatment of cancers” (Eli Lilly and Company, priority 2014, dated 2017).

Target: AICARFT (Homo sapiens, UniProt P31939)
Test: MS detection of ZMP in low folate media cultured NCI-H460 cells
Format: cell-based
Design: endogenous in cells; host or cells: NCI-H460
Details: for IC50: Mean ± SEM, ZMP concentration by LC-MS, NCI-H460 cells in low folate media, 16 hours; for AICARFT inhibition in low folate media assay (in words): low levels of folate in the media, summary of Table 16
Procedure: Grow NCI-H460 cells in complete high folate RPMI media (ATCC #30-2001) until cellular confluence reaches ˜80%. Wash cells with PBS, trypsinize, resuspend cells in complete low folate RPMI media (Gibco #27016-021) and perform a cell count. Transfer 1.25×10^6 cells to a T225 flask containing complete low folate RPMI media (40 mL). Grow for seven days. Split cells again with complete low folate media if confluence surpasses 80%. Wash cells with PBS, trypsinize, resuspend cells in complete low folate RPMI media, and perform a cell count. Aliquot 10×10^6 cells in complete low folate media (1 mL)+5% DMSO per cryovial. Use a cell freezing apparatus to freeze cells in a slow and controlled manner in a −80° C. freezer. The next day, transfer cells to liquid nitrogen for long term storage. Thaw frozen cells from cryovial in 37° C. water bath, wash cells once with low folate assay medium: folate free RPMI 1640 medium (Gibco, #27016-021), Glucose (Sigma, #G5767), Hepes (Hyclone, #SH30237.01), Na Pyruvate (Hyclone, #Sh30239.01), 10% FBS (Hyclone, #SH30070.03). Adjust cells concentration to 250,000 cells/mL with medium, plate cells by adding 100 μl/well (25,000 cells/well) into Biocoat poly-D-lysine 96-well plate (BD, #35-4640), and incubate at 37° C. overnight with 5% CO2. Treat cells with 20 μl/well compound diluted in media containing 3% DMSO. Incubate at 37° C. for 16 hours with 5% CO2, then remove the medium and add 1× SureFire Lysis Buffer (50 μL) (PerkinElem, SureFire® Kit component) to each well and incubate at room temperature for 10 min with gentle shaking.
Cells grown in a 96-well plate have the media removed and are lysed in AlphaScreen® SureFire® lysis buffer. Standard curves containing ZMP, dUMP and AICAr at concentrations of 5-10,000 ng/mL are prepared in 40 mM ammonium acetate, pH 4. Aliquots (40 μL) of each standard or sample are combined in a deep 96-well plate with 160 μL of internal standard solution containing ^13C5-ZMP (custom synthesis) and ^13C5-AICAr (custom synthesis) at 100 ng/mL in 40 mM ammonium acetate, pH 4. A Beckman Biomek FX liquid handler is used to add 400 μL of DCM to each sample. Samples are sealed, vortexed for 5 minutes, and placed in the refrigerator for at least 30 minutes. The samples are centrifuged for 10 minutes at 4,000 rpm and 4° C. using an Eppendorf 5810R centrifuge, and the Biomek liquid handler is used to transfer 75 μL of the aqueous layer into a clean 96-well plate. The plates are sealed prior to analysis.
The LC-MS method utilizes a Shimadzu Prominence 20A HPLC system connected to an AB Sciex 5500™ or an AB Sciex 6500™ triple quadrupole mass spectrometer running Analyst® 2.1 software. Extracted samples are separated using a Thermo Hypercarb™ Javelin guard column (2.1×20 mm, […]) with an injection volume of 15 μL and a flow rate of 1 mL/minute. Mobile phase A is a 95:5 mixture of 50 mM ammonium formate, pH 4 and ACN. Mobile phase B is a 70:30 mixture of ACN and MeOH spiked with 0.3% formic acid and 2% concentrated ammonium hydroxide solution (v/v). The gradient is as follows: 0 minutes, 0% B; 0.25 minutes, 0% B; 2.00 minutes, 30% B; 2.01 minutes, 95% B; 3.50 minutes, 95% B, 3.51 minutes, 0% B, 5.00 minutes, stop.
The mass spectrometer is operated in positive ion TurboIonSpray® multiple reaction monitoring mode with a source temperature of 700° C. The precursor and fragment ions for each analyte are: ZMP (339→110), ^13C5-ZMP (344→110), dUMP (309→81), AICAr (259→127) and ^13C5-AICAr (264→127). Calibration curves are constructed by plotting analyte concentrations vs. analyte/internal standard peak area ratios and performing a linear fit of the data using a 1/concentration weighting with AB Sciex MultiQuant™ 2.1 software. Back-calculated ZMP concentrations are fit to a four-parameter logistic equation using ACTIVITYBASE 4.0 to determine IC50 values.

Sequence of AICARFT (P31939 whole entry): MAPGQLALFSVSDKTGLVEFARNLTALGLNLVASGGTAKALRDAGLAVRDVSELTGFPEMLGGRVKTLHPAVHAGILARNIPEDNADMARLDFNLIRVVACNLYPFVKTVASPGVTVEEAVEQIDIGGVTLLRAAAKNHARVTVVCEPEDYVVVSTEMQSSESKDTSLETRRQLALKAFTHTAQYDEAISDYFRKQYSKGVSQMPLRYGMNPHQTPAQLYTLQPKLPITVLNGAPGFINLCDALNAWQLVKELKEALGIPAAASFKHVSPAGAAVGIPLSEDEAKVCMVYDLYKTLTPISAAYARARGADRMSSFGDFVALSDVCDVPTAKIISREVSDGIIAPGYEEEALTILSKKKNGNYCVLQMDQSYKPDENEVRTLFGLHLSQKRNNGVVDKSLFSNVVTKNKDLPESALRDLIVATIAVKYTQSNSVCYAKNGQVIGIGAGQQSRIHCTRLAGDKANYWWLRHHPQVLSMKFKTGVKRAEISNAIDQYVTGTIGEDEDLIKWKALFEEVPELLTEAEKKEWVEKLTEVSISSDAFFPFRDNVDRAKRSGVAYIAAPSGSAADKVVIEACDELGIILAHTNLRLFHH

| IC50 [nM] | AICARFT inhibition in low folate media assay (in words) | Compound |
| --- | --- | --- |
| 10.2 | still inhibit AICARFT | CC1(C)CC(c2ccc(S(=O)(=O)Nc3cc4c(=O)[nH]ccc4cc3F)s2)=CNC1=O [Example 81, 5-(5,5-Dimethyl-6-oxo-1,4,5,6-tetrahydropyridin-3-yl)-N-(6-fluoro-1-oxo-1,2-dihydroisoquinolin-7-yl)thiophene-2-sulfonamide] |
|  | still inhibit AICARFT | O=c1[nH]ccc2cc(F)c(NS(=O)(=O)c3ccc(N4CC[C@@H](O)C4)s3)cc12 [Example 1, N-(6-Fluoro-1-oxo-1,2-dihydroisoquinolin-7-yl)-5-[(3R)-3-hydroxypyrrolidin-1-yl]thiophene-2-sulfonamide] |
| 10.1 | still inhibit AICARFT | CCC1(C)CC(c2ccc(S(=O)(=O)Nc3cc4c(=O)[nH]ccc4cc3F)s2)=CNC1=O (single isomer, unassigned; isomer 1) [Example 84, 5-(5-Ethyl-5-methyl-6-oxo-1,4,5,6-tetrahydropyridin-3-yl)-N-(6-fluoro-1-oxo-1,2-dihydroisoquinolin-7-yl)thiophe2ne-2-sulfonamide, Isomer 1] |
| 39.6 | still inhibit AICARFT | O=c1[nH]ccc2cc(F)c(NS(=O)(=O)c3ccc([C@@H]4CC[C@@H](O)C4)s3)cc12 (single isomer, unassigned) [Example 46] |

| Compound | IC50 [nM] | AICARFT inhibition in low folate media assay (in words) |
| --- | --- | --- |
| O=c1[nH]ccc2cc(F)c(NS(=O)(=O)c3ccc(N4C[C@@H](O)C(F)(F)C4)s3)cc12 [Example 41, 5-[(4R)-3,3-difluoro-4-hydroxypyrrolidin-1-yl]-N-(6-fluoro-1-oxo-1,2-dihydroisoquinolin-7-yl)thiophene-2-sulfonamide] | 42.2 | still inhibit AICARFT |
| O=c1[nH]ccc2cc(F)c(NS(=O)(=O)c3ccc(N4C[C@@H](O)[C@@H](F)C4)s3)cc12 (single isomer, unassigned) [Example 33] | 7.93 | still inhibit AICARFT |
